For assay [1], the system named is C57BL/6J mice. Nature of the assay: Locomotor activity (distance traveled) in mice. Type of assay: in vivo, mouse. Conditions: for Locomotor Activity (cm) Mean: 30 min. The procedure:
At 1–2 weeks prior to the beginning of experiments, mice were habituated to handling and receiving s.c. saline injections. On the day of an experiment, mice were acclimated to the testing room in their home cage for at least 30 min prior to the start of sessions. Prior to each session, mice were weighed, and resting body temperatures were recorded. Mice were then placed into experimental chambers for acclimation. Behavioral testing was carried out in TruScan mouse locomotor arenas equipped with photobeam arrays (Coulbourn Instruments, Holliston, MA, USA) that were modified with cylindrical inserts and transparent flooring to aid in semi-automated HTR detection as previously described (Glatfelter et al. [2022a]). After 5 min of acclimation, basal body temperature was recorded followed by s.c. injection of drug or vehicle, and mice were returned to test chambers for 30 min. Dose ranges for each drug were 0.03–10 mg/kg for DOI, 0.03–10 mg/kg for psilocybin, and 0.003–1 mg/kg for LSD. Mice were randomly assigned to specific doses at the beginning of the experiment and received different doses at each session.
During each session, locomotor activity was quantified via photobeam tracking of distance traveled in cm. Overhead GoPro Hero Black 7 video recordings (120 fps, 960p resolution) were analyzed using a commercially available software package from Clever Sys Inc. (Reston, VA, USA) for the measurement of HTR activity. Mouse body temperature was also collected post-session to calculate temperature change values (basal - post session temperature reading).
Concentration-response data were fit to a single site non-linear regression model. For the HTR studies, potencies were determined from the ascending limb of the dose-response curves using ED50 potency values from [agonist] vs. response (variable slope, four parameter) least squares fit non-linear regression analyses, whereas efficacy was defined by the top output parameter or Emax from the aforementioned analyses. […] Best-fit values for ED50 and Emax from non-linear regression analyses were compared by extra sum-of-squares F tests. Mean effects for each behavioral endpoint were compared using two-way ANOVA (dose x sex), followed by Sidak’s multiple comparisons post-hoc test. Mean effects for pooled mouse behavioral data were compared via Welch’s ANOVA with Dunnett’s T3 post-hoc test, comparing all doses to saline vehicle controls (0 mg/kg). Alpha was set to 0.05 for all analyses.

For assay [2], the system named is C57BL/6J mice. Conditions: range over Table 1 and an earlier study; ref Glatfelter et al. ([2024b]); cited from earlier work.

Consider 2 compounds from PMC12449377, “Psychedelic-like effects induced by 2,5-dimethoxy-4-iodoamphetamine, lysergic acid diethylamide, and psilocybin in male and female C57BL/6J mice” (Psychopharmacology, 2025).

In the case of `CCN(CC)C(=O)[C@@H]1C=C2c3cccc4[nH]cc(c34)C[C@H]2N(C)C1` [LSD, lysergic acid diethylamide], the “Locomotor Activity (cm) Mean” value came out at 2499.8 cm in the assay on C57BL/6J mice [1] (0.003 mg/kg s.c., female mice); 2549.1 cm with C57BL/6J mice [1] (0.003 mg/kg s.c., male mice); 2526 cm in the assay with C57BL/6J mice [1] (0.003 mg/kg s.c., pooled sexes); 2581.2 cm in the assay with C57BL/6J mice [1] (0.01 mg/kg s.c., female mice); 2649.3 cm in the assay on C57BL/6J mice [1] (0.01 mg/kg s.c., male mice); 2615 cm in the assay on C57BL/6J mice [1] (0.01 mg/kg s.c., pooled sexes). The “Locomotor Activity (cm) Mean” value with C57BL/6J mice [1] (0.03 mg/kg s.c., female mice) was determined as 2977.4 cm; in the assay on C57BL/6J mice [1] (0.03 mg/kg s.c., male mice), 2756.4 cm; with C57BL/6J mice [1] (0.03 mg/kg s.c., pooled sexes), 2867 cm; with C57BL/6J mice [1] (0.1 mg/kg s.c., female mice), 2290.0 cm; in the assay on C57BL/6J mice [1] (0.1 mg/kg s.c., male mice), 2650.0 cm; in the assay on C57BL/6J mice [1] (0.1 mg/kg s.c., pooled sexes), 2456 cm. The “Locomotor Activity (cm) Mean” value with C57BL/6J mice [1] (0.3 mg/kg s.c., female mice) is 2309.5 cm; in the assay on C57BL/6J mice [1] (0.3 mg/kg s.c., male mice), 2123.8 cm; in the assay on C57BL/6J mice [1] (0.3 mg/kg s.c., pooled sexes) it was 2217 cm; in the assay on C57BL/6J mice [1] (1 mg/kg s.c., female mice), 2029.2 cm; with C57BL/6J mice [1] (1 mg/kg s.c., male mice), 1571.6 cm; with C57BL/6J mice [1] (1 mg/kg s.c., pooled sexes), 1800 cm. Also, the Locomotor activity effect result in the assay on C57BL/6J mice [1] (1 mg/kg s.c.) was “decreased locomotion”. In addition, the “s.c. ED50 doses for inducing HTR in mice” value with C57BL/6J mice [2] was 0.035 to 0.039 mg/kg.

For the compound `COc1cc(CC(C)N)c(OC)cc1I` (stereo not drawn) [DOI, 2,5-dimethoxy-4-iodoamphetamine], the “Locomotor Activity (cm) Mean” value came to 2149 cm in the assay on C57BL/6J mice [1] (0.03 mg/kg s.c., female mice); 2753 cm with C57BL/6J mice [1] (0.03 mg/kg s.c., male mice); 2408 cm in the assay on C57BL/6J mice [1] (0.03 mg/kg s.c., pooled sexes); 2292 cm with C57BL/6J mice [1] (0.1 mg/kg s.c., female mice); 3045 cm in the assay with C57BL/6J mice [1] (0.1 mg/kg s.c., male mice); 2606 cm in the assay with C57BL/6J mice [1] (0.1 mg/kg s.c., pooled sexes). In addition, the “Locomotor Activity (cm) Mean” value in the assay with C57BL/6J mice [1] (1 mg/kg s.c., female mice) was 3246.7 cm; in the assay on C57BL/6J mice [1] (1 mg/kg s.c., male mice), 4033.6 cm; with C57BL/6J mice [1] (1 mg/kg s.c., pooled sexes), 3640 cm; with C57BL/6J mice [1] (3 mg/kg s.c., female mice), 3192.6 cm; in the assay with C57BL/6J mice [1] (3 mg/kg s.c., male mice) it was 3289.3 cm; with C57BL/6J mice [1] (3 mg/kg s.c., pooled sexes), 3241 cm. Besides, the “Locomotor Activity (cm) Mean” value is 2459.7 cm in the assay on C57BL/6J mice [1] (10 mg/kg s.c., female mice); 2529.1 cm in the assay on C57BL/6J mice [1] (10 mg/kg s.c., male mice); 2492 cm in the assay on C57BL/6J mice [1] (10 mg/kg s.c., pooled sexes). Moreover, the Locomotor activity effect result in the assay with C57BL/6J mice [1] (1 mg/kg s.c.) was “marginal increase”.
